Measured values taken from paper PMC11539229 (Antimicrobial Agents and Chemotherapy, 2024).
Converted amounts (≈) assume the structure as drawn. Read-outs that look alike come from different tables or passages of the source.

Columns and labels:
M. tuberculosis H37Rv = assay type: in vivo, BALB/c mice; settings: for effect of addition to BPaL on bactericidal activity: experiment 5; for additional reduction of lung CFU counts on addition to RZ: vs RZ; for reduction of lung CFU counts: monotherapy 300 mg/kg
[1] = mouse, in vivo, 10 mg/kg; cited from earlier work
[2] = Sparse plasma sampling in infected mice of the combination study (experiment 2); assay type: in vivo, mouse; settings: for Plasma AUC0–24 h: monocompartmental model, combination study; for Blood AUC0–24 h: plasma value transformed with blood/plasma ratio 1.79
Text: (§1) The calculated exposures at EDmax for GSK138 and GSK693 were obtained using the intravenous mouse PK profiles fitting to a bicompartmental model to obtain those parameters to simulate the oral whole blood exposures at EDmax. Additionally, a monocompartmental model was used to fit the experimental oral pharmacokinetic studies in non-infected mouse together with measured plasma concentrations obtained from the sparse sampling in the experiment 2 in infected mice. Parameters obtained from this fitting were used to simulate the profile after GSK693 administration at 100, 200, and 300 mg/kg in the combination study and to calculate the associated exposures (see Table 2).
Tail vein blood was collected at the indicated time points. Briefly, an incision was made in the lateral tail vein. Blood (20–50 µL) was collected in BD Microtainer PST lithium heparin tubes from each mouse. The tubes were kept on ice before being centrifuged at 8,000 rpm for 5 min. The supernatant plasma (15–30 µL) was transferred to labeled microcentrifuge tubes, frozen, and stored at −80°C and then shipped on dry ice to GSK for further analysis.
Ten microliters of plasma or blood samples thawed at ambient temperature was mixed with 200 µL of acetonitrile (ACN):MeOH (80:20). After this protein precipitation step, samples were filtered using a 0.45-µm filter plate [Multiscreen Solvinert 0.45-μm polytetrafluoroethylene (PTFE), Millipore] and then filtered using a 0.2-µm filter [AcroPrep Advance 96 Filter Plate 350 µL, 0.2-µm polytetrafluoroethylene (PTFE)] to ensure sterilization prior to LC-MS analysis.

[3] = tested on: drug-susceptible, MDR and XDR M.tb clinical isolates; assay: microbe, parasite or virus in culture; assay type: cell-based, M. tuberculosis; settings: drug-susceptible, MDR and XDR clinical isolates
[4] = mouse, in vivo
Text: as §1

COc1c(N2C[C@@H]3CCCN[C@@H]3C2)c(F)cc2c(=O)c(C(=O)O)cn(C3CC3)c12 [moxifloxacin, reference compound]
effect of addition to BPaL on bactericidal activity (M. tuberculosis H37Rv; 4 weeks of treatment): trend toward enhanced activity

CO[C@H]1/C=C/O[C@@]2(C)Oc3c(C)c(O)c4c(O)c(c(/C=N/N5CCN(C)CC5)c(O)c4c3C2=O)NC(=O)/C(C)=C\C=C\[C@H](C)[C@H](O)[C@@H](C)[C@@H](O)[C@@H](C)[C@H](OC(C)=O)[C@@H]1C [rifampicin, reference compound]
AUC0–24 h [1]: 87,200–142,100 ng·h/mL
AUC(0-t) ([2]; mouse, plasma, rifampicin co-administered with pyrazinamide, experiment 2, read-out: Plasma AUC0–24 h): 68500 ng·h/mL

NNC(=O)c1ccncc1 [isoniazid, reference compound]
effect of addition to BPaL on bactericidal activity (M. tuberculosis H37Rv; 4 weeks of treatment): significantly increased the bactericidal activity
effect on the activity of the RZ combination (M. tuberculosis H37Rv; mouse, in vivo): did not enhance the activity

Cc1csc([C@](C)(O)c2nnc(Nc3ccn(Cc4csc(C)n4)n3)s2)n1 [GSK693]
MIC90 [3]: 1.87 µM (≈ 0.785 µg/mL)
Plasma AUC0–24 h ([2]; 100 mg/kg): 12,867 ng·h/mL
Blood AUC0–24 h ([2]; 100 mg/kg): 23,032 ng·h/mL
Plasma AUC0–24 h ([2]; 200 mg/kg): 27,337 ng·h/mL
Blood AUC0–24 h ([2]; 200 mg/kg): 48,933 ng·h/mL
Plasma AUC0–24 h ([2]; 300 mg/kg): 64,866 ng·h/mL
Blood AUC0–24 h ([2]; 300 mg/kg): 116,110 ng·h/mL
exposure needed to achieve the maximum effect in monotherapy in the acute infection model [4]: 110,200 ng·h/mL
additional reduction of lung CFU counts on addition to RZ (M. tuberculosis H37Rv; experiment 1, 300 mg/kg, week 8): 1.44 log
additive effect when combined with sutezolid, linezolid, or pretomanid (lung CFU) (M. tuberculosis H37Rv; experiment 1, GSK693 300 mg/kg): No additive effect
reduction of lung CFU counts (M. tuberculosis H37Rv; experiment 1, 4 weeks of treatment): 1.34 log10
reduction of lung CFU counts (M. tuberculosis H37Rv; experiment 1, 8 weeks of treatment): 2.33 log10
additional reduction of lung CFU counts on addition to RZ (M. tuberculosis H37Rv; experiment 2, 100 mg/kg, 8 weeks): 1.17 log
additional reduction of lung CFU counts on addition to RZ (M. tuberculosis H37Rv; experiment 2, 200 mg/kg, 8 weeks): 1.28 log
additional reduction of lung CFU counts on addition to RZ (M. tuberculosis H37Rv; experiment 2, 300 mg/kg, 8 weeks): 0.76 log
activity of the combination with RZ vs RZ alone or RZ with isoniazid (M. tuberculosis H37Rv; mouse, in vivo): significantly more active
effect on the activity of the RZ combination (M. tuberculosis H37Rv; mouse, in vivo): significantly enhanced
efficacy in combination with pretomanid and pyrazinamide compared with moxifloxacin (M. tuberculosis H37Rv; mouse, in vivo, 300 mg/kg): nor was it as effective as moxifloxacin
